Reference: ChEMBL document CHEMBL4152321, “Synthesis and antiplasmodial activity of glyco-conjugate hybrids of phenylhydrazono-indolinones and glycosylated 1,2,3-triazolyl-methyl-indoline-2,3-diones” (Eur J Med Chem, 2018)

Assays:
[1] = Cytotoxicity against African green monkey Vero cells after 3 days by resazurin dye based fluorescence assay; type: cell-based; conditions: chlorocebus sabaeus
Plasmodium falciparum [2] = assay: Antiplasmodial activity against chloroquine-sensitive Plasmodium falciparum 3D7 infected in human erythrocytes after 72 hrs by SYBR Green 1 staining based fluorescence assay; type: functional, organism-based; conditions: 3D7, 72 h
Plasmodium falciparum [3] = assay: Antiplasmodial activity against chloroquine-resistant Plasmodium falciparum K1 infected in human erythrocytes after 72 hrs by SYBR Green 1 staining based fluorescence assay; type: functional, organism-based; conditions: K1, 72 h
[4] = Selectivity index, ratio of CC50 for African green monkey Vero cells to IC50 for chloroquine-sensitive Plasmodium falciparum 3D7 infected in human erythrocytes; type: toxicity, cell-based; conditions: read-out: Ratio CC50/IC50
[5] = Selectivity index, ratio of CC50 for African green monkey Vero cells to IC50 for chloroquine-resistant Plasmodium falciparum K1 infected in human erythrocytes; type: toxicity, cell-based; conditions: read-out: Ratio CC50/IC50

SMILES | CC50 at 72 h [1] [µM] | IC50 (Plasmodium falciparum [2]) [µM] | IC50 (Plasmodium falciparum [3]) [µM] | selectivity ratio [4] | selectivity ratio [5]
O=C1/C(=N\Nc2cccc(Cl)c2)c2ccccc2N1Cc1cn(O[C@@H]2O[C@H](CO)[C@H](O)[C@H](O)[C@H]2O)nn1 | 84.5 | 6.74 | 2.62 | 12.5 | 32.2
COc1ccc(N/N=C2\C(=O)N(Cc3cn(O[C@@H]4O[C@H](CO)[C@@H](O)[C@H](O)[C@H]4O)nn3)c3ccccc32)cc1 | 79.6 | 3.27 | 4.89 | 24.4 | 16.3
CC1(C)O[C@H]2[C@@H](O1)[C@@H](Cn1cc(CN3C(=O)/C(=N\Nc4ccc(C#N)cc4)c4ccccc43)nn1)O[C@@H]1OC(C)(C)O[C@@H]12 | 126 | 3.59 | 2.77 | 34.9 | –
O=C1/C(=N\Nc2ccc(F)cc2)c2ccccc2N1Cc1cn(O[C@@H]2O[C@H](CO)[C@H](O)[C@H](O)[C@H]2O)nn1 | 92.1 | 6.64 | 3.23 | 13.9 | 28.5
CC(=O)C[C@H]1O[C@@H](On2cc(CN3C(=O)/C(=N\Nc4ccc(C#N)cc4)c4ccccc43)nn2)[C@H](OC(C)=O)[C@@H](OC(C)=O)[C@H]1OC(C)=O | 75.5 | 3.67 | 4.28 | 20.6 | 17.6
O=C1/C(=N\Nc2ccccc2)c2ccccc2N1Cc1cn(O[C@@H]2O[C@H](CO)[C@H](O)[C@H](O)[C@H]2O)nn1 | 83.4 | 4.8 | 8.68 | 17.4 | 9.6
O=C1/C(=N\Nc2ccc(Br)cc2)c2ccccc2N1Cc1cn(O[C@@H]2O[C@H](CO)[C@@H](O)[C@H](O)[C@H]2O)nn1 | – | 9.34 | 7.95 | – | –
CC1(C)O[C@H]2O[C@H](Cn3cc(CN4C(=O)/C(=N\Nc5cccc(Cl)c5)c5ccccc54)nn3)[C@H](O)[C@H]2O1 | 70 | 4.47 | 3.42 | 15.7 | 20.5
COc1ccc(N/N=C2\C(=O)N(Cc3cn(O[C@@H]4O[C@H](CO)[C@H](O)[C@H](O)[C@H]4O)nn3)c3ccccc32)cc1 | 76.2 | 3.46 | 5.2 | 22 | 14.7
CC1(C)O[C@H]2[C@@H](O1)[C@@H](Cn1cc(CN3C(=O)C(=O)c4ccccc43)nn1)O[C@@H]1OC(C)(C)O[C@@H]12 | – | 8.41 | 7.51 | – | –
COc1ccc(N/N=C2\C(=O)N(Cc3cn(O[C@@H]4O[C@H](CC(C)=O)[C@@H](OC(C)=O)[C@H](OC(C)=O)[C@H]4OC(C)=O)nn3)c3ccccc32)cc1 | 95.3 | 3.05 | 4.13 | 31.2 | 23.1
CC1(C)O[C@H]2[C@@H](O1)[C@@H](Cn1cc(CN3C(=O)/C(=N\Nc4ccccc4)c4ccccc43)nn1)O[C@@H]1OC(C)(C)O[C@@H]12 | 105 | 3.87 | 2.62 | 27.2 | 40.2
CC1(C)O[C@H]2[C@@H](O1)[C@@H](Cn1cc(CN3C(=O)/C(=N\Nc4ccc(Br)cc4)c4ccccc43)nn1)O[C@@H]1OC(C)(C)O[C@@H]12 | 119 | 1.96 | 1.61 | 60.7 | 73.9
CC(=O)C[C@H]1O[C@@H](On2cc(CN3C(=O)C(=O)c4ccccc43)nn2)[C@H](OC(C)=O)[C@@H](OC(C)=O)[C@@H]1OC(C)=O | 137 | 3.54 | > 10 | 38.6 | < 13.7
CC(=O)C[C@H]1O[C@@H](On2cc(CN3C(=O)/C(=N\Nc4ccccc4)c4ccccc43)nn2)[C@H](OC(C)=O)[C@@H](OC(C)=O)[C@H]1OC(C)=O | 65.2 | 3.5 | 4.13 | 18.6 | 15.8
CCN(CC)CCCC(C)Nc1ccnc2cc(Cl)ccc12 (configuration not stated) [CHLOROQUINE] | > 500 | – | – | – | –
CC(=O)C[C@H]1O[C@@H](On2cc(CN3C(=O)/C(=N\Nc4cccc(Cl)c4)c4ccccc43)nn2)[C@H](OC(C)=O)[C@@H](OC(C)=O)[C@@H]1OC(C)=O | 117 | 3.96 | 8.67 | 29.4 | 13.4
CC1(C)O[C@H]2O[C@H](Cn3cc(CN4C(=O)/C(=N\Nc5ccc(C#N)cc5)c5ccccc54)nn3)[C@H](O)[C@H]2O1 | 105 | 4.79 | 3.4 | 21.8 | 30.8
CC1(C)O[C@H]2O[C@H](Cn3cc(CN4C(=O)/C(=N\Nc5ccccc5)c5ccccc54)nn3)[C@H](O)[C@H]2O1 | 82.1 | 4.67 | 4.66 | 17.6 | 17.6

SMILES | CC50 at 72 h [1] [µM] | IC50 (Plasmodium falciparum [2]) [µM] | IC50 (Plasmodium falciparum [3]) [µM] | selectivity ratio [4] | selectivity ratio [5]
COc1ccc(N/N=C2\C(=O)N(Cc3cn(O[C@@H]4O[C@H](CC(C)=O)[C@H](OC(C)=O)[C@H](OC(C)=O)[C@H]4OC(C)=O)nn3)c3ccccc32)cc1 | 62.5 | 1.27 | 3.12 | 49.2 | 20
COc1ccc(N/N=C2\C(=O)N(Cc3cn(C[C@H]4O[C@@H]5OC(C)(C)O[C@@H]5[C@H]5OC(C)(C)O[C@H]54)nn3)c3ccccc32)cc1 | 105 | 1.64 | 2.29 | 64.2 | 46
N#Cc1ccc(N/N=C2\C(=O)N(Cc3cn(O[C@@H]4O[C@H](CO)[C@H](O)[C@H](O)[C@H]4O)nn3)c3ccccc32)cc1 | 93.7 | 7.65 | 3.3 | 12.2 | 28.4
O=C1/C(=N\Nc2ccccc2)c2ccccc2N1Cc1cn(O[C@@H]2O[C@H](CO)[C@@H](O)[C@H](O)[C@H]2O)nn1 | 88.5 | 4.7 | 8.11 | 18.8 | 10.9
CC(=O)C[C@H]1O[C@@H](On2cc(CN3C(=O)C(=O)c4ccccc43)nn2)[C@H](OC(C)=O)[C@@H](OC(C)=O)[C@H]1OC(C)=O | – | 8.4 | 8.07 | – | –
COc1ccc(N/N=C2\C(=O)N(Cc3cn(C[C@H]4O[C@@H]5OC(C)(C)O[C@@H]5[C@H]4O)nn3)c3ccccc32)cc1 | 74.5 | 3.8 | 3.28 | 19.6 | 22.7
CC(=O)C[C@H]1O[C@@H](On2cc(CN3C(=O)/C(=N\Nc4ccc(F)cc4)c4ccccc43)nn2)[C@H](OC(C)=O)[C@@H](OC(C)=O)[C@H]1OC(C)=O | 78.6 | 2.44 | 3 | 32.2 | 26.2
CC(=O)C[C@H]1O[C@@H](On2cc(CN3C(=O)/C(=N\Nc4cccc(Cl)c4)c4ccccc43)nn2)[C@H](OC(C)=O)[C@@H](OC(C)=O)[C@H]1OC(C)=O | 87.9 | 2.47 | 1.93 | 35.6 | 45.5
O=C1/C(=N\Nc2ccc(F)cc2)c2ccccc2N1Cc1cn(O[C@@H]2O[C@H](CO)[C@@H](O)[C@H](O)[C@H]2O)nn1 | – | 8 | 8.53 | – | –
CC1(C)O[C@H]2[C@@H](O1)[C@@H](Cn1cc(CN3C(=O)/C(=N\Nc4ccc(F)cc4)c4ccccc43)nn1)O[C@@H]1OC(C)(C)O[C@@H]12 | 122 | 3.07 | 2.64 | 39.9 | 46.4
CC1(C)O[C@H]2[C@@H](O1)[C@@H](Cn1cc(CN3C(=O)/C(=N\Nc4cccc(Cl)c4)c4ccccc43)nn1)O[C@@H]1OC(C)(C)O[C@@H]12 | 117 | 3.23 | 2.49 | 36.2 | 47
CC(=O)C[C@H]1O[C@@H](On2cc(CN3C(=O)/C(=N\Nc4ccc(C#N)cc4)c4ccccc43)nn2)[C@H](OC(C)=O)[C@@H](OC(C)=O)[C@@H]1OC(C)=O | 75.4 | 3.33 | 5.72 | 22.6 | 13.2
CC(=O)C[C@H]1O[C@@H](On2cc(CN3C(=O)/C(=N\Nc4ccc(Br)cc4)c4ccccc43)nn2)[C@H](OC(C)=O)[C@@H](OC(C)=O)[C@@H]1OC(C)=O | 116 | 3.79 | 3.84 | 30.7 | 30.3
CC(=O)C[C@H]1O[C@@H](On2cc(CN3C(=O)/C(=N\Nc4ccccc4)c4ccccc43)nn2)[C@H](OC(C)=O)[C@@H](OC(C)=O)[C@@H]1OC(C)=O | 108 | 3.73 | 7.11 | 28.9 | 15.1
CC1(C)O[C@H]2O[C@H](Cn3cc(CN4C(=O)/C(=N\Nc5ccc(F)cc5)c5ccccc54)nn3)[C@H](O)[C@H]2O1 | 83.8 | 3.08 | 3.99 | 21.2 | 21
CC1(C)O[C@H]2O[C@H](Cn3cc(CN4C(=O)/C(=N\Nc5ccc(Br)cc5)c5ccccc54)nn3)[C@H](O)[C@H]2O1 | 72.9 | 4.05 | 3.52 | 18 | 20.7
N#Cc1ccc(N/N=C2\C(=O)N(Cc3cn(O[C@@H]4O[C@H](CO)[C@@H](O)[C@H](O)[C@H]4O)nn3)c3ccccc32)cc1 | – | 7.78 | 7.01 | – | –
O=C1/C(=N\Nc2cccc(Cl)c2)c2ccccc2N1Cc1cn(O[C@@H]2O[C@H](CO)[C@@H](O)[C@H](O)[C@H]2O)nn1 | – | 6.73 | 7.62 | – | –
